The target of test [1] is 5-hydroxytryptamine receptor 2B (Homo sapiens, UniProt P41595). The experiment in a line: Selectivity interaction (GPCR panel (PDSP screen)) EUB0000336a HTR2B. To be noted: at 1 µM.
For test [2], the target named is Phosphatidylinositol 4,5-bisphosphate 3-kinase catalytic subunit alpha isoform (Homo sapiens, UniProt P42336). Kind of test: Selectivity interaction (KinomeScan (DiscoverX)) EUB0000336a PIK3CA. The following applies: at 1 µM.
The target of test [3] is T1, Phosphatidylinositol 5-phosphate 4-kinase type-2 gamma (Homo sapiens) (UniProt Q8TBX8).
T1 sequence (whole entry): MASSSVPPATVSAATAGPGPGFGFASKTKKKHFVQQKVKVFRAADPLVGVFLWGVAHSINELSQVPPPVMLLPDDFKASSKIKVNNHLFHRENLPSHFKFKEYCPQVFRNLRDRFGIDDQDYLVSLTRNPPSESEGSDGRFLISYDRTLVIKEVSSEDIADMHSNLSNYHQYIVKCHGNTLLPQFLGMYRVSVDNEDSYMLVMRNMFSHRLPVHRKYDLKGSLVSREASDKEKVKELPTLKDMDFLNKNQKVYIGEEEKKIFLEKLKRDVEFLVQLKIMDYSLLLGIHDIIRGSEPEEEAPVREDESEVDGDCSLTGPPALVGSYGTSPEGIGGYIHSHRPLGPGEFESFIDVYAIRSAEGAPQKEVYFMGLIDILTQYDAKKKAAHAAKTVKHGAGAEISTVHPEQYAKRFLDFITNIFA
The experiment in a line: Selectivity interaction (KinomeScan (DiscoverX)) EUB0000336a PIP4K2C. The following applies: at 1 µM.

The target of test [4] is Serine/threonine-protein kinase Nek5 (Homo sapiens) (UniProt Q6P3R8). The experiment in a line: Selectivity interaction (KinomeScan (DiscoverX)) EUB0000336a NEK5. The following applies: at 1 µM.
For test [5], the target named is Tyrosine-protein kinase receptor Tie-1 (Homo sapiens) (UniProt P35590). The experiment in a line: Selectivity interaction (KinomeScan (DiscoverX)) EUB0000336a TIE1. The following applies: at 1 µM.
In test [6] the target is Epidermal growth factor receptor (Homo sapiens, UniProt P00533). The experiment in a line: Selectivity interaction (KinomeScan (DiscoverX)) EUB0000336a EGFR. To be noted: at 1 µM.
The target in test [7] is T2, Gamma-aminobutyric acid receptor subunit alpha-1 (Homo sapiens) (UniProt P14867).
T2 sequence (whole entry): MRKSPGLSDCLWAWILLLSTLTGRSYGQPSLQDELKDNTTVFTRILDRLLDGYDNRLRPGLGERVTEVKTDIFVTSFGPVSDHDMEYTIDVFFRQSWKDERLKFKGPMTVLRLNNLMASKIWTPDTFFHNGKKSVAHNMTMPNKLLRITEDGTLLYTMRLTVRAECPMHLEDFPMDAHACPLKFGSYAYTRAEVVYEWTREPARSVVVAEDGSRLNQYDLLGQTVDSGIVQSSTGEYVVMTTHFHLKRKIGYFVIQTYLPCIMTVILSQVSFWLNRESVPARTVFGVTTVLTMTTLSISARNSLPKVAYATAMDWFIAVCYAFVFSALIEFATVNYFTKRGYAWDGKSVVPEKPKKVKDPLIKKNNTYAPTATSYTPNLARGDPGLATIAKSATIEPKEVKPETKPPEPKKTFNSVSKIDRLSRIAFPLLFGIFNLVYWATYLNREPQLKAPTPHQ
The experiment in a line: Selectivity interaction (Eurofins CEREP Diversity Profiling (71 receptors, ion channels, and 25 other enzymes)) EUB0000231c GABRA1. To be noted: at 10 µM.

The target of test [8] is cGMP-inhibited 3',5'-cyclic phosphodiesterase 3A (Homo sapiens, UniProt Q14432). Kind of test: Selectivity interaction (Eurofins CEREP Diversity Profiling (71 receptors, ion channels, and 25 other enzymes)) EUB0000231c PDE3A. The following applies: at 10 µM.
Chain of cGMP-inhibited 3',5'-cyclic phosphodiesterase 3A (Q14432 whole entry): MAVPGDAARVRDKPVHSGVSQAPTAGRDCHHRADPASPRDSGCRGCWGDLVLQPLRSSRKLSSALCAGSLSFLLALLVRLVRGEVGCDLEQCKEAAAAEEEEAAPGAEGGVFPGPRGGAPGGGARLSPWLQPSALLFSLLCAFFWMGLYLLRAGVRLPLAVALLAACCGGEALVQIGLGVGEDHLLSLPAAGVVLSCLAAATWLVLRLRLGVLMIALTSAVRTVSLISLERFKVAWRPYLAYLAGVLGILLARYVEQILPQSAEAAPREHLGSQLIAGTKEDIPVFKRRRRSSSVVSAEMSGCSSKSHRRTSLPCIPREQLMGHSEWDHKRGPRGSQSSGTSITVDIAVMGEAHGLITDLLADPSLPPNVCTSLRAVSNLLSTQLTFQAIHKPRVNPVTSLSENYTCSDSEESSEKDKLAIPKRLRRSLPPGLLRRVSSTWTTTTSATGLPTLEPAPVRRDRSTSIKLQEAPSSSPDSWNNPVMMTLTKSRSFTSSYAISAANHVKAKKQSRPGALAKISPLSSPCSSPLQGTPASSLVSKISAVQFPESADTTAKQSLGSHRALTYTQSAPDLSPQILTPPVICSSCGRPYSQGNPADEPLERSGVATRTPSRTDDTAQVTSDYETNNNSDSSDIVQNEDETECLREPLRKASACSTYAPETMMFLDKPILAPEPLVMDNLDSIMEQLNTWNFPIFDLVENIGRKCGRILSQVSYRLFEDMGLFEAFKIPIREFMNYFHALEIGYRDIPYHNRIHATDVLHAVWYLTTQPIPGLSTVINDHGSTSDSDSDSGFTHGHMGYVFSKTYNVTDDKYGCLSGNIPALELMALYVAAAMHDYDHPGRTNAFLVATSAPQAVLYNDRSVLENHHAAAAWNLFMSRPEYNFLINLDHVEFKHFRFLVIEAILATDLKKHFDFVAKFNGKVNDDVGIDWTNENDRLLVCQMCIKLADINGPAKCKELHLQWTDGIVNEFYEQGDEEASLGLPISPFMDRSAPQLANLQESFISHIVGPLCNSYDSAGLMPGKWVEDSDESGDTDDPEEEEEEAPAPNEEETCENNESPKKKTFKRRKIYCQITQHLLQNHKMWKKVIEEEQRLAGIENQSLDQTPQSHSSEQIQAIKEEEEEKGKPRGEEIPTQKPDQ
Test [9] deals with T3, Adenosine receptor A1 (Homo sapiens) (UniProt P30542).
T3 sequence (whole entry): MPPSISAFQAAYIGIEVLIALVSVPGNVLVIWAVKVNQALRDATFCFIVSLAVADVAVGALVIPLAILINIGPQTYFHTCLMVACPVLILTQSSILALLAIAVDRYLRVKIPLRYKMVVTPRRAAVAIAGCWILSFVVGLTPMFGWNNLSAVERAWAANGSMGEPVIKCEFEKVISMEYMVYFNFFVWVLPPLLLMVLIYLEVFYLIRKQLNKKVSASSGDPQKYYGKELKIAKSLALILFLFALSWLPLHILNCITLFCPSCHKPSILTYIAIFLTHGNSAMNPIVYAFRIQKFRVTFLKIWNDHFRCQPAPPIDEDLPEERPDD
Kind of test: Selectivity interaction (Eurofins CEREP Diversity Profiling (71 receptors, ion channels, and 25 other enzymes)) EUB0000231c ADORA1. The following applies: at 10 µM.

In test [10] the target is cGMP-dependent 3',5'-cyclic phosphodiesterase (Homo sapiens) (UniProt O00408). Kind of test: Selectivity interaction (Eurofins CEREP Diversity Profiling (71 receptors, ion channels, and 25 other enzymes)) EUB0000231c PDE2A. The following applies: at 10 µM.
In test [11] the target is 3',5'-cyclic-AMP phosphodiesterase 4D (Homo sapiens) (UniProt Q08499). The experiment in a line: Selectivity interaction (Eurofins CEREP Diversity Profiling (71 receptors, ion channels, and 25 other enzymes)) EUB0000231c PDE4D. To be noted: at 10 µM.
For test [12], the target named is Serine/threonine-protein kinase 17A (Homo sapiens) (UniProt Q9UEE5). The experiment in a line: Selectivity interaction (Kinase panel (ProQinase)) EUB0000631a STK17A. To be noted: at 1 µM.
Test [13] concerns the target T4, Mitogen-activated protein kinase 15 (Homo sapiens) (UniProt Q8TD08).
T4 sequence (whole entry): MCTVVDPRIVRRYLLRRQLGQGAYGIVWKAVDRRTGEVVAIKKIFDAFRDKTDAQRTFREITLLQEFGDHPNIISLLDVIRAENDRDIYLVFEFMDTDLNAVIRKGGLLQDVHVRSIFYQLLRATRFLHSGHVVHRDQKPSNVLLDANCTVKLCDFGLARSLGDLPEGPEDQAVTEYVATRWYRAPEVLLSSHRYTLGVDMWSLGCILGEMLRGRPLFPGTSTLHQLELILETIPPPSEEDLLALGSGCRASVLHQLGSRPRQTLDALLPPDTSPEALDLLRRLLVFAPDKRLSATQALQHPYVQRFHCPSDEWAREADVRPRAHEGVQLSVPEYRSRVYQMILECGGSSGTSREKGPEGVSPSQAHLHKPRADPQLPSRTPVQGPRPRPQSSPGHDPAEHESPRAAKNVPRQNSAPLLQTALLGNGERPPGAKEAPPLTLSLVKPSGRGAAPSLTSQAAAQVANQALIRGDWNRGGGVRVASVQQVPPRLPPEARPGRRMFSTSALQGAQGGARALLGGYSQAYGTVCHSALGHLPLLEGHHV
The experiment in a line: Selectivity interaction (Dundee panel (140 kinases and 19 lipid kinases)) EUB0000631a MAPK15. To be noted: at 1 µM.

The target of test [14] is Mitogen-activated protein kinase kinase kinase 7 (Homo sapiens) (UniProt O43318). The experiment in a line: Selectivity interaction (Dundee panel (140 kinases and 19 lipid kinases)) EUB0000631a MAP3K7. To be noted: at 1 µM.
The target in test [15] is Casein kinase I isoform epsilon (Homo sapiens, UniProt P49674). Kind of test: Selectivity interaction (Radioisotope filter binding assay (Reaction Biology)) EUB0000696a CSNK1E. To be noted: at 1 µM.
Chain of Casein kinase I isoform epsilon (P49674 whole entry, looked up, canonical isoform): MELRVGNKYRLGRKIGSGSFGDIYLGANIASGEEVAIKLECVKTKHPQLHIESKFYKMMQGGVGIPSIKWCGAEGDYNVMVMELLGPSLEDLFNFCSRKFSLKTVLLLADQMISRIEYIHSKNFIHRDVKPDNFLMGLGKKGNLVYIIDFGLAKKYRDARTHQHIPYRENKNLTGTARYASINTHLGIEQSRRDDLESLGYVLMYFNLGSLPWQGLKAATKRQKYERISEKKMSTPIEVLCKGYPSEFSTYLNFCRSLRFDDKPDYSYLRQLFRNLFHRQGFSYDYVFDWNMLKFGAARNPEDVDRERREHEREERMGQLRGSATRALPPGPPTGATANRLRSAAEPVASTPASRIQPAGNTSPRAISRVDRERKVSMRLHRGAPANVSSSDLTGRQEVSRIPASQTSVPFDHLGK
For test [16], the target named is MAP/microtubule affinity-regulating kinase 3 (Homo sapiens) (UniProt P27448). Kind of test: Selectivity interaction (KinomeScan (DiscoverX)) EUB0000315b MARK3. The following applies: at 1 µM.
The target of test [17] is SRSF protein kinase 2 (Homo sapiens) (UniProt P78362). Kind of test: Selectivity interaction (KinomeScan (DiscoverX)) EUB0000315b SRPK2. To be noted: at 1 µM.
Chain of SRSF protein kinase 2 (Homo sapiens) (P78362 whole entry, looked up): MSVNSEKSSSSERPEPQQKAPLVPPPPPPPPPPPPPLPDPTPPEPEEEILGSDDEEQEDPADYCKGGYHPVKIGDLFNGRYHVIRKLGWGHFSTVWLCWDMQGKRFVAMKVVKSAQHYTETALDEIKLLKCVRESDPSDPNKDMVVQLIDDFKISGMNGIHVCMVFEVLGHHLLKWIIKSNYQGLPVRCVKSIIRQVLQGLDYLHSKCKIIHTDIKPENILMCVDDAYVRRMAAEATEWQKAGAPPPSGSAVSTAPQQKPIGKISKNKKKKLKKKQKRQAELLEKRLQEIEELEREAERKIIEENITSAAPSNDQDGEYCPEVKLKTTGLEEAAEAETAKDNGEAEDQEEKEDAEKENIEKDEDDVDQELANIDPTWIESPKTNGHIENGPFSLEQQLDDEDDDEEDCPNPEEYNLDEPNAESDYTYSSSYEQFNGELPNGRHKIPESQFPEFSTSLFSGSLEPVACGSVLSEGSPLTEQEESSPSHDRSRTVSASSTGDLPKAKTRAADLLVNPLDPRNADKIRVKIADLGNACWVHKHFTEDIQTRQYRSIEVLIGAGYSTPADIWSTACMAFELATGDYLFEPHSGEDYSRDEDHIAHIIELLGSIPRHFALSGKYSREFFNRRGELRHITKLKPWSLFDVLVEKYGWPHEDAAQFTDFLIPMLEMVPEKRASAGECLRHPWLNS
Test [18] concerns Receptor-type tyrosine-protein kinase FLT3 (Homo sapiens), P36888 [UNDEFINED MUTATION]. The experiment in a line: Selectivity interaction (KinomeScan (DiscoverX)) EUB0000315b FLT3. To be noted: at 1 µM.
The target of test [19] is Receptor-type tyrosine-protein kinase FLT3 (Homo sapiens) (UniProt P36888). Kind of test: Selectivity interaction (Kinase panel) EUB0000214b FLT3. The following applies: at […].
For test [20], the target named is Tyrosine-protein kinase ABL1 (Homo sapiens, UniProt P00519). Kind of test: Selectivity interaction (KiNativ profiling (A375 live cells treatment assays)) EUB0000238b ABL1. The following applies: at 1 µM.
The target in test [21] is Tyrosine-protein kinase ABL2 (Homo sapiens) (UniProt P42684). Kind of test: Selectivity interaction (KiNativ profiling (A375 live cells treatment assays)) EUB0000238b ABL2. To be noted: at 1 µM.
For test [22], the target named is Phosphatidylinositol 4,5-bisphosphate 3-kinase catalytic subunit beta isoform (Homo sapiens) (UniProt P42338). The experiment in a line: Selectivity interaction (KinomeScan (DiscoverX)) EUB0000014b PIK3CB. To be noted: at 1 µM.
Test [23] deals with Substance-K receptor (Homo sapiens) (UniProt P21452). Kind of test: Selectivity interaction (CEREP panel (ligand receptors, ion channels, transporters)) EUB0000330a TACR2. To be noted: at 1 µM.
For another test, the target named is CREB-binding protein (Homo sapiens, UniProt Q92793). The experiment in a line: Selectivity interaction (Bromodomain panel (DSF assay)) EUB0000330a CREBBP. In general terms: DSF heats the sample and reads unfolding from a dye or from intrinsic fluorescence.
For test [24], the target named is Serine/threonine-protein kinase DCLK2 (Homo sapiens) (UniProt Q8N568). The experiment in a line: Selectivity interaction (KinomeScan (Ambit)) EUB0000687a DCLK2. The following applies: at 10 µM.
Test [25] has as its target Serine/threonine-protein kinase PLK4 (Homo sapiens) (UniProt O00444). Kind of test: Selectivity interaction (KinomeScan (Ambit)) EUB0000687a PLK4. To be noted: at 10 µM.
Test [26] deals with 5-hydroxytryptamine receptor 7 (Homo sapiens, UniProt P34969). The experiment in a line: Selectivity interaction (GPCR panel (PDSP screen)) EUB0000317b HTR7. To be noted: at 10 µM.
Chain of 5-hydroxytryptamine receptor 7 (P34969 whole entry): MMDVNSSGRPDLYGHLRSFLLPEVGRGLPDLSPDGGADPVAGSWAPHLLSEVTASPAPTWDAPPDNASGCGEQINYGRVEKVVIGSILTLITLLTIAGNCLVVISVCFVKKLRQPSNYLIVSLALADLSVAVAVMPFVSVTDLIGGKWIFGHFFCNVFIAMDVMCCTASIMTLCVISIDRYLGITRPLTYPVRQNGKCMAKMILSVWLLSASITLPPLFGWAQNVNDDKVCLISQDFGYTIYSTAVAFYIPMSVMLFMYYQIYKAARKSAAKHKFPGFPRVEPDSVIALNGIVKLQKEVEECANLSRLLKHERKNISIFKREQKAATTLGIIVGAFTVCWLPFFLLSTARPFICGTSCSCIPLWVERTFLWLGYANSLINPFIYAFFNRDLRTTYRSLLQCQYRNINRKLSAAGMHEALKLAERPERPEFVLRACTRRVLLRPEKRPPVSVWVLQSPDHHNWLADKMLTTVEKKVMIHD
Test [27] concerns the target Serine/threonine-protein kinase 38-like (Homo sapiens, UniProt Q9Y2H1). The experiment in a line: Selectivity interaction (KinomeScan (DiscoverX)) EUB0000317b STK38L. To be noted: at 1 µM.

Each structure is given as a SMILES string.

One may read the inhibition as the drop in the measured response relative to a control, in per cent. Low values mean a weak effect, high ones a strong effect.

Chain of Serine/threonine-protein kinase 38-like (Q9Y2H1 2-464 limits assumed): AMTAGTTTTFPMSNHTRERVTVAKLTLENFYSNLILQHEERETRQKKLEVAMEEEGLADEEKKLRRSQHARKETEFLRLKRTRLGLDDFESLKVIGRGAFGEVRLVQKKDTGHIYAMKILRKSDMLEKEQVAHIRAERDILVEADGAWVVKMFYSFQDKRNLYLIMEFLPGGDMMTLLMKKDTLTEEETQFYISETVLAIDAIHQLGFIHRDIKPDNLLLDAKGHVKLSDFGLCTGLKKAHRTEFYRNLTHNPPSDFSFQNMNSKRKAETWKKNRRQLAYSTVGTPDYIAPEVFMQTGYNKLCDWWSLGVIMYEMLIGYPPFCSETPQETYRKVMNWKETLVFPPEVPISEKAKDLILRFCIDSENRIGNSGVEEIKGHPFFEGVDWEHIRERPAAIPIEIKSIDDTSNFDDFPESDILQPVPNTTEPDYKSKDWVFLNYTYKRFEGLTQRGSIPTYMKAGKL
Chain of 5-hydroxytryptamine receptor 2B (P41595 whole entry, canonical isoform): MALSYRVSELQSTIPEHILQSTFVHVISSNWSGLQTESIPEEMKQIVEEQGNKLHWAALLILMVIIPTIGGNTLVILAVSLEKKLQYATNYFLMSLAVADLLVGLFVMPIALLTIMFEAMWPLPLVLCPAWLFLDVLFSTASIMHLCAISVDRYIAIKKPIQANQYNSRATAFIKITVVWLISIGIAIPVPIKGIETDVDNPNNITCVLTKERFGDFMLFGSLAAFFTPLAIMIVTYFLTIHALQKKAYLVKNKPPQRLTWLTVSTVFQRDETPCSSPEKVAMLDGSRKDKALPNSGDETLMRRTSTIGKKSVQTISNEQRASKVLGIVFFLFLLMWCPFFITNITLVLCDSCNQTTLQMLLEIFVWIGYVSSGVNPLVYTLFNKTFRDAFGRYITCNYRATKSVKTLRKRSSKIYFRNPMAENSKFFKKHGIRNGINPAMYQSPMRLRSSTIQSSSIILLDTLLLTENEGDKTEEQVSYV
Chain of Phosphatidylinositol 4,5-bisphosphate 3-kinase catalytic subunit alpha isoform (P42336 whole entry, canonical isoform): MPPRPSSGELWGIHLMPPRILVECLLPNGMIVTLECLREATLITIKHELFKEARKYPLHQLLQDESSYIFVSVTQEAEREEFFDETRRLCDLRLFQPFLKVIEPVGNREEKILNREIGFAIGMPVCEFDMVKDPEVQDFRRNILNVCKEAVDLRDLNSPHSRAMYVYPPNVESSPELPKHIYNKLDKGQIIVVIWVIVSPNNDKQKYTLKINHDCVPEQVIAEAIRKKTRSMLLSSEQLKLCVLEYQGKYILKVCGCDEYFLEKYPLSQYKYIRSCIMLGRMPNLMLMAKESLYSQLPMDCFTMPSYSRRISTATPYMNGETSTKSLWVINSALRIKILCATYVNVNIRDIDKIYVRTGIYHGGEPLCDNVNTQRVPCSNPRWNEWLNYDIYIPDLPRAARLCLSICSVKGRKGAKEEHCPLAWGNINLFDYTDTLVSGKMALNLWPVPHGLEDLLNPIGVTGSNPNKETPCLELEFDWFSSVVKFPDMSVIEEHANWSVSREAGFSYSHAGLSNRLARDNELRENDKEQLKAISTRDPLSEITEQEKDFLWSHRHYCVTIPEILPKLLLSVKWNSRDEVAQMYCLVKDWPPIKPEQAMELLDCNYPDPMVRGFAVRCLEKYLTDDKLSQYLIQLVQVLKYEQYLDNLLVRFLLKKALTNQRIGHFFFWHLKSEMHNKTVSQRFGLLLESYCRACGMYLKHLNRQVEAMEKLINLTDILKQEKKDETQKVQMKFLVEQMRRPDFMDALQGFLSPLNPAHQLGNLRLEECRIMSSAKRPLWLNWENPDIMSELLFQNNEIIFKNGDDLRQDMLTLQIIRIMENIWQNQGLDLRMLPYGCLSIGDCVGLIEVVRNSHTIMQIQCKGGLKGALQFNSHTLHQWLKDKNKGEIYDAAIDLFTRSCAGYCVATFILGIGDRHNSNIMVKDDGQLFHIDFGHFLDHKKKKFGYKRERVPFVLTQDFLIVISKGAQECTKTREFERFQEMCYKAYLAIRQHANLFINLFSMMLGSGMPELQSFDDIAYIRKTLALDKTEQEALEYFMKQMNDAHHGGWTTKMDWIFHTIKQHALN

In turn, `Cc1nc(Cc2cccc(C(F)(F)F)c2)sc1-c1ccc(C(N)=O)nc1` yielded a % of inhibition in test [1] of 34%. Besides, the % of control stood at 15% in test [2]; 0.3% in [3]; 35% in test [4]; 28% in [5]; 0% in test [6].

Take `CC(=O)c1cc(-c2cc(C(=O)NC3CC3)ccc2C)c2ncccn12`: the % of control is 47% in test [7]; 48% in test [8]; 14% in test [9]; 25% in [10]; 28% in [11].

`CC(C)(O)CNc1ncc(-c2ccnc(Nc3ccnc(Cl)c3)n2)c(CC2CC2)n1`: the % of activity remaining in test [12] turned out to be 45%; in test [13], 32%; in test [14], 40%.

Take `CC(C)Oc1ccc(-c2nn([C@@H](C)c3oc4ccc(F)cc4c(=O)c3-c3cccc(F)c3)c3ncnc(N)c23)cc1F`: the % of control in test [15] came out at 39%.

`Cn1nc(C(F)(F)F)cc1-c1cnc(N2CCc3cc(S(=O)(=O)Nc4c(F)cc(Cl)cc4F)cc(N4CCCC4=O)c32)nc1`: the % of control amounted to 12% in test [16], 34% in [17] and 32% in test [18].

On to `O=C(c1ccc(C(=O)N2CCC(N3CCCC3)CC2)c(Nc2ccccc2)c1)N1CCC(N2CCCC2)CC1`, for which the % of control in [19] turned out to be 64%.

Regarding `CNc1cc(Oc2cc(C(=O)Nc3cc(N4CCN(C)CC4)cc(C(F)(F)F)c3)ccc2C)ncn1`, the % of inhibition in test [20] and in [21] was 49% each time.

On to `Nc1ccc(C(=O)Nc2cccc(-c3nc(N4CCOCC4)c4oc5ncccc5c4n3)c2)cn1`, for which, in test [22], the % of control was 9.8%.

The molecule `Cc1sc2c(c1C)C(c1ccc(Cl)cc1)=N[C@@H](CC(=O)OC(C)(C)C)c1nnc(C)n1-2` returned a % bound fraction in test [23] of 48%. Besides, the dTm at CREB-binding protein amounted to 1.04 K.

Consider `CCOc1cc(C(=O)N2CCC(N3CCN(C)CC3)CC2)ccc1Nc1ncc2c(n1)N(C1CCCC1)c1ccccc1C(=O)N2C`, for which the % of control in test [24] came out at 3.6%; in test [25] it was 5.1%.

In [26], `Cc1cc(-n2nc(Cc3cc(F)cc(C(F)(F)F)c3)nc2C)ccc1C(N)=O` displayed an inhibition of 21%. Further, the % of control in test [27] turned out to be 49%.

Values taken from ChEMBL document CHEMBL5212743, “Selectivity Literature for EUbOPEN Chemogenomics Library wave 3” (2023).
